Patent US20140051576A1, “ACTIVE COMPOUND COMBINATIONS COMPRISING A (THIO)CARBOXAMIDE DERIVATIVE AND AN INSECTICIDAL OR ACARICIDAL OR NEMATICIDAL ACTIVE COMPOUND” (priority 2011, published 2014)
Like-named read-outs stand apart in the source and are kept apart here.

Columns and labels:
Spodoptera frugiperda = assay: whole plant or invertebrate
Method: Spodoptera frugiperda—Test (SPODFR Spray Application)
Solvent: 78.0 parts by weight acetone • 1.5 parts by weight N,N-dimethylformamide Emulsifier: 0.5 parts by weight alkylarylpolyglycolether
Maize (Zea mais) leaf sections are sprayed with a preparation of the active ingredient of the desired concentration. Once dry, the leaf sections are infested with larvae of the fall armyworm (Spodoptera frugiperda).
After the specified period of time, the mortality in % is determined. 100% means that all caterpillars have been killed and 0% means that none of the caterpillars have been killed.

Tetranychus urticae = Tetranychus urticae - Test; OP-resistant (TETRUR spray application); assay type: in vivo
From the text: Tetranychus urticae—Test; OP-Resistant (TETRUR Spray Application)
French beans (Phaseolus vulgaris) which are heavily infested with all stages of the two spotted spidermite (Tetranychus urticae), are sprayed with a preparation of the active ingredient at the desired concentration.

Phaedon cochleariae = Phaedon cochleariae Larvae - Test (PHAECO spray application); assay type: in vivo
From the text: Phaedon cochleariae—Test; (PHAECO Spray Application)
Solvent: 78 parts by weight of acetone • 1.5 parts by weight of N,N-dimethylformamide Emulsifier: 0.5 parts by weight of alkylarylpolyglycolether
Once dry, the leaf discs are infested with mustard beetle larvae (Phaedon cochleariae).

Myzus persicae = Myzus persicae - Test (MYZUPE spray application); assay type: in vivo
From the text: Myzus persicae—Test; (MYZUPE Spray Application)
Chinese cabbage (Brassica pekinesis) leaf—disks infected with all instars of the green peach aphid (Myzus persicae), are sprayed with a preparation of the active ingredient at the desired concentration.
100% means that all aphids have been killed; 0% means that none of the aphids have been killed.

[1] = Spodoptera frugiperda, 144 h, read-out: Mortality in % after 6 days obs.
[2] = Tetranychus urticae, 48 h, read-out: Mortality in % after 2 days obs.
[3] = Phaedon cochleariae, 144 h, read-out: Mortality in % after 6 days obs.
[4] = Myzus persicae, 144 h, read-out: Mortality in % after 6 days obs.
[5] = Spodoptera frugiperda, 48 h, read-out: Mortality in % after 2 days obs.
[6] = Tetranychus urticae, 144 h, read-out: Mortality in % after 6 days obs.
[7] = Phaedon cochleariae, 48 h, read-out: Mortality in % after 2 days obs.
[8] = Myzus persicae, 24 h, read-out: Mortality in % after 1 day obs.
[9] = 100 g/ha, single active ingredient, 6 days
[10] = 0.8 g/ha, single active ingredient, 6 days
[11] = 4 g/ha, single active ingredient, 6 days

## Cc1c(F)c(F)c(COC(=O)[C@@H]2[C@H](/C=C(\Cl)C(F)(F)F)C2(C)C)c(F)c1F (racemic) [B-3A.43, Tefluthrin]
Spodoptera frugiperda; [1]
  mortality at 0.8 g/ha: 0%
  mortality at 4 g/ha: 0%
Tetranychus urticae; [2]
  mortality at 20 g/ha: 0%
Phaedon cochleariae; [3]
  mortality at 20 g/ha: 0%
Myzus persicae; [4]
  mortality at 4 g/ha: 0%

## CC(C)c1ccccc1CN(C(=O)c1c(C(F)F)nn(C)c1F)C1CC1 [A-1, N-cyclopropyl-3-(difluoromethyl)-5-fluoro-N-(2-isopropylbenzyl)-1-methyl-1H-pyrazole-4-carboxamide]
Spodoptera frugiperda; [5]
  mortality at 100 g/ha: 0%
Spodoptera frugiperda; [1]
  mortality at 100 g/ha: 0%
Tetranychus urticae; [2]
  mortality at 100 g/ha: 0%
Tetranychus urticae; [6]
  mortality at 100 g/ha: 0%
Phaedon cochleariae; [7]
  mortality at 100 g/ha: 0%
Phaedon cochleariae; [3]
  mortality at 100 g/ha: 0%
Myzus persicae; [8]
  mortality at 100 g/ha: 0%
Myzus persicae; [4]
  mortality at 100 g/ha: 0%

## CC(C)c1ccc(Cl)cc1CN(C(=O)c1c(C(F)F)nn(C)c1F)C1CC1 [A-5, N-(5-chloro-2-isopropylbenzyl)-N-cyclopropyl-3-(difluoromethyl)-5-fluoro-1-methyl-1H-pyrazole-4-carboxamide]
Spodoptera frugiperda; [5]
  mortality at 100 g/ha: 0%
  mortality at 200 g/ha: 0%
Spodoptera frugiperda; [1]
  mortality at 100 g/ha: 0%
  mortality at 200 g/ha: 0%
Tetranychus urticae; Tetranychus urticae, 144 h, 200 g/ha, single active ingredient, 6 days, read-out: Mortality in % after 6 days obs.
  mortality at 200 g/ha: 0%
Phaedon cochleariae; Phaedon cochleariae, 48 h, 100 g/ha, read-out: Mortality in % after 2 days obs.
  mortality at 100 g/ha: 0%
Phaedon cochleariae; Phaedon cochleariae, 48 h, 150 g/ha, read-out: Mortality in % after 2 days obs.
  mortality at 150 g/ha: 0%
Phaedon cochleariae; Phaedon cochleariae, 144 h, 100 g/ha, read-out: Mortality in % after 6 days obs.
  mortality at 100 g/ha: 0%
Phaedon cochleariae; Phaedon cochleariae, 144 h, 200 g/ha, read-out: Mortality in % after 6 days obs.
  mortality at 200 g/ha: 0%
Myzus persicae; Myzus persicae, 24 h, 100 g/ha, read-out: Mortality in % after 1 day obs.
  mortality at 100 g/ha: 0%
Myzus persicae; Myzus persicae, 24 h, 200 g/ha, read-out: Mortality in % after 1 day obs.
  mortality at 200 g/ha: 0%
Myzus persicae; Myzus persicae, 144 h, 100 g/ha, read-out: Mortality in % after 6 days obs.
  mortality at 100 g/ha: 0%
Myzus persicae; Myzus persicae, 144 h, 200 g/ha, read-out: Mortality in % after 6 days obs.
  mortality at 200 g/ha: 0%

## CC(C)c1ccc(F)cc1CN(C(=O)c1c(C(F)F)nn(C)c1F)C1CC1 [A-7, N-cyclopropyl-3-(difluoromethyl)-5-fluoro-N-(5-fluoro-2-isopropylbenzyl)-1-methyl-1H-pyrazole-4-carboxamide]
Spodoptera frugiperda; [5]
  mortality at 100 g/ha: 0%
  mortality at 150 g/ha: 0%
Spodoptera frugiperda; [1]
  mortality at 100 g/ha: 0%
Tetranychus urticae; [2]
  mortality at 100 g/ha: 0%
  mortality at 150 g/ha: 0%
  mortality at 200 g/ha: 0%
Phaedon cochleariae; [7]
  mortality at 100 g/ha: 0%
  mortality at 150 g/ha: 0%
Phaedon cochleariae; [3]
  mortality at 100 g/ha: 0%
  mortality at 200 g/ha: 0%
Myzus persicae; [8]
  mortality at 100 g/ha: 0%
  mortality at 200 g/ha: 0%
Myzus persicae; [4]
  mortality at 100 g/ha: 0%
  mortality at 200 g/ha: 0%

## Cc1ccc(C(C)C)c(CN(C(=O)c2c(C(F)F)nn(C)c2F)C2CC2)c1 [A-12, N-cyclopropyl-3-(difluoromethyl)-5-fluoro-N-(2-isopropyl-5-methylbenzyl)-1-methyl-1H-pyrazole-4-carboxamide]
Spodoptera frugiperda; [5]
  mortality at 100 g/ha: 0%
  mortality at 200 g/ha: 0%
Spodoptera frugiperda; [1]
  mortality at 100 g/ha: 0%
Tetranychus urticae; [2]
  mortality at 100 g/ha: 0%
  mortality at 150 g/ha: 0%
Tetranychus urticae; [6]
  mortality at 100 g/ha: 0%
Phaedon cochleariae; [7]
  mortality at 100 g/ha: 0%
Phaedon cochleariae; [3]
  mortality at 100 g/ha: 0%
  mortality at 200 g/ha: 0%
Myzus persicae; [8]
  mortality at 100 g/ha: 0%
  mortality at 200 g/ha: 0%
Myzus persicae; [4]
  mortality at 100 g/ha: 0%
  mortality at 200 g/ha: 0%

## Cn1nc(C(F)F)c(C(=O)N(Cc2cc(Cl)ccc2C(F)(F)F)C2CC2)c1F [A-15, N-[5-chloro-2-(trifluoromethyl)benzyl]-N-cyclopropyl-3-(difluoromethyl)-5-fluoro-1-methyl-1H-pyrazole-4-carboxamide]
Spodoptera frugiperda; [1]
  mortality at 500 g/ha: 0%
Tetranychus urticae; [2]
  mortality at 500 g/ha: 0%
Tetranychus urticae; [6]
  mortality at 500 g/ha: 0%
Phaedon cochleariae; [7]
  mortality at 500 g/ha: 0%
Phaedon cochleariae; [3]
  mortality at 500 g/ha: 0%
Myzus persicae; [8]
  mortality at 500 g/ha: 0%
Myzus persicae; [4]
  mortality at 500 g/ha: 0%

## CNC(=O)O/N=C/C(C)(C)SC [B-1A.2, Aldicarb]
Spodoptera frugiperda; 100 g/ha
  Mortality in % after 2 days obs.: 0%
  Mortality in % after 6 days obs.: 33%
Phaedon cochleariae; 100 g/ha
  Mortality in % after 6 days obs.: 0%
Myzus persicae; 20 g/ha
  Mortality in % after 6 days obs.: 80%
Myzus persicae; 100 g/ha
  Mortality in % after 1 day obs.: 0%

## CS/C(C)=N\OC(=O)N(C)SN(C)C(=O)O/N=C(\C)SC [B-1A.21, Thiodicarb]
Spodoptera frugiperda; 4 g/ha
  Mortality in % after 6 days obs.: 0%
Spodoptera frugiperda; 20 g/ha
  Mortality in % after 6 days obs.: 33%
Tetranychus urticae; [9]
  Mortality in % after 6 days obs.: 0%
Myzus persicae; 100 g/ha
  Mortality in % after 6 days obs.: 0%

## CC1(C)[C@H](/C=C(\Cl)C(F)(F)F)[C@@H]1C(=O)O[C@@H](C#N)c1cccc(Oc2ccccc2)c1 [B-3A.12, L-Cyhalothrin]
Spodoptera frugiperda; 0.8 g/ha
  Mortality in % after 6 days obs.: 83%
Tetranychus urticae; 0.16 g/ha
  Mortality in % after 2 days obs.: 0%
Tetranychus urticae; 0.8 g/ha
  Mortality in % after 2 days obs.: 70%
Tetranychus urticae; [10]
  Mortality in % after 6 days obs.: 70%
Phaedon cochleariae; 0.8 g/ha
  Mortality in % after 2 days obs.: 67%

## CN1COCN(Cc2cnc(Cl)s2)/C1=N\[N+](=O)[O-] [B-4A.7, Thiamethoxam]
Tetranychus urticae; [2]
  mortality at 20 g/ha: 0%
Tetranychus urticae; [6]
  mortality at 4 g/ha: 0%
Phaedon cochleariae; [3]
  mortality at 0.8 g/ha: 0%
Myzus persicae; [8]
  mortality at 4 g/ha: 0%
Myzus persicae; [4]
  mortality at 0.8 g/ha: 70%

## N#CCNC(=O)c1cnccc1C(F)(F)F [B-9.2, Flonicamid]
Tetranychus urticae; [9]
  Mortality in % after 6 days obs.: 0%
Phaedon cochleariae; 20 g/ha
  Mortality in % after 6 days obs.: 0%
Myzus persicae; 20 g/ha
  Mortality in % after 1 day obs.: 0%
  Mortality in % after 6 days obs.: 80%

## CCOC(=O)OC1=C(c2cc(C)ccc2C)C(=O)N[C@]12CC[C@@H](OC)CC2 [B-23B.1, Spirotetramat]
Spodoptera frugiperda; [1]
  mortality at 20 g/ha: 0%
Tetranychus urticae; [2]
  mortality at 4 g/ha: 0%
  mortality at 20 g/ha: 0%
Tetranychus urticae; [6]
  mortality at 0.8 g/ha: 70%
Myzus persicae; [4]
  mortality at 4 g/ha: 70%
  mortality at 20 g/ha: 70%

## CNC(=O)c1cc(Cl)cc(C)c1NC(=O)c1cc(Br)nn1-c1ncccc1Cl [B-26.1, Chlorantraniliprole (Rynaxypyr)]
Phaedon cochleariae; 0.8 g/ha
  Mortality in % after 6 days obs.: 33%
Phaedon cochleariae; 4 g/ha
  Mortality in % after 2 days obs.: 50%
  Mortality in % after 6 days obs.: 33%
Myzus persicae; 0.8 g/ha
  Mortality in % after 6 days obs.: 0%

## CC(c1ccc(C(F)(F)F)nc1)S(C)(=O)=NC#N (stereo not shown) [B-27.27, Sulfoxaflor]
Tetranychus urticae; [6]
  mortality at 4 g/ha: 0%
Phaedon cochleariae; [3]
  mortality at 4 g/ha: 33%
Myzus persicae; [8]
  mortality at 0.8 g/ha: 0%
  mortality at 4 g/ha: 0%

## Abamectin [B-6.1]
Tetranychus urticae; 0.8 g/ha
  Mortality in % after 2 days obs.: 70%
Phaedon cochleariae; 0.16 g/ha
  Mortality in % after 6 days obs.: 33%

## Ethiprole [B-2B.1]
Myzus persicae; 100 g/ha
  Mortality in % after 6 days obs.: 0%

## Flubendiamide [B-26.3]
Spodoptera frugiperda; 100 g/ha
  Mortality in % after 2 days obs.: 67%
Tetranychus urticae; [9]
  Mortality in % after 6 days obs.: 0%
Phaedon cochleariae; 4 g/ha
  Mortality in % after 6 days obs.: 0%
Phaedon cochleariae; 20 g/ha
  Mortality in % after 6 days obs.: 50%

## Imidacloprid [B-4A.4]
Tetranychus urticae; [11]
  Mortality in % after 6 days obs.: 0%
Phaedon cochleariae; 100 g/ha
  Mortality in % after 6 days obs.: 67%
Myzus persicae; 0.8 g/ha
  Mortality in % after 1 day obs.: 0%
Myzus persicae; 4 g/ha
  Mortality in % after 1 day obs.: 70%
Myzus persicae; 20 g/ha
  Mortality in % after 1 day obs.: 80%

## Methiocarb [B-1A15]
Spodoptera frugiperda; 500 g/ha
  Mortality in % after 2 days obs.: 0%
  Mortality in % after 6 days obs.: 33%
Tetranychus urticae; [9]
  Mortality in % after 6 days obs.: 10%
Tetranychus urticae; 500 g/ha
  Mortality in % after 2 days obs.: 0%
Phaedon cochleariae; 20 g/ha
  Mortality in % after 6 days obs.: 33%

## Spinetoram [B-5.1]
Spodoptera frugiperda; 0.032 g/ha
  Mortality in % after 2 days obs.: 0%
Spodoptera frugiperda; 0.8 g/ha
  Mortality in % after 2 days obs.: 83%
Tetranychus urticae; 0.8 g/ha
  Mortality in % after 2 days obs.: 30%
Tetranychus urticae; [10]
  Mortality in % after 6 days obs.: 70%
Phaedon cochleariae; 0.16 g/ha
  Mortality in % after 6 days obs.: 0%
Phaedon cochleariae; 0.8 g/ha
  Mortality in % after 6 days obs.: 0%
Phaedon cochleariae; 4 g/ha
  Mortality in % after 6 days obs.: 0%

## Spinosad [B-5.2]
Spodoptera frugiperda; 0.16 g/ha
  Mortality in % after 2 days obs.: 0%
Tetranychus urticae; 0.8 g/ha
  Mortality in % after 2 days obs.: 0%
Tetranychus urticae; [10]
  Mortality in % after 6 days obs.: 0%
Tetranychus urticae; 4 g/ha
  Mortality in % after 2 days obs.: 0%
Tetranychus urticae; 20 g/ha
  Mortality in % after 2 days obs.: 0%
Phaedon cochleariae; 0.8 g/ha
  Mortality in % after 6 days obs.: 0%
Phaedon cochleariae; 4 g/ha
  Mortality in % after 6 days obs.: 0%
Phaedon cochleariae; 20 g/ha
  Mortality in % after 2 days obs.: 50%

## Thiacloprid [B-4A.6]
Tetranychus urticae; [11]
  Mortality in % after 6 days obs.: 0%
Tetranychus urticae; 100 g/ha
  Mortality in % after 2 days obs.: 0%
Phaedon cochleariae; 20 g/ha
  Mortality in % after 6 days obs.: 83%
Phaedon cochleariae; 100 g/ha
  Mortality in % after 2 days obs.: 0%
Myzus persicae; 0.16 g/ha
  Mortality in % after 6 days obs.: 0%
Myzus persicae; 0.8 g/ha
  Mortality in % after 1 day obs.: 70%
Myzus persicae; 4 g/ha
  Mortality in % after 6 days obs.: 0%
